# Numbers after ± are expanded uncertainties.
# Assay: mn = molality of the nth substance listed, in mol/kg
# Settings: 101.3 kPa, Liquid, Vibrating tube method
compound,measurement,setting,value
O=[N+]([O-])[O-].O=[N+]([O-])[O-].O=[N+]([O-])[O-].[Ce+3] [cerium nitrate] + O,mass density,"293.15 K, m1 = 0.5112",1131.2 ± 0.8 kg/m3
same,mass density,"293.15 K, m1 = 1.031",1252.8 ± 1.5 kg/m3
same,mass density,"293.15 K, m1 = 1.555",1361.9 ± 2.3 kg/m3
same,mass density,"293.15 K, m1 = 1.997",1446.2 ± 3.1 kg/m3
same,mass density,"293.15 K, m1 = 3.131",1633.2 ± 5.4 kg/m3
same,mass density,"293.15 K, m1 = 3.968",1746.4 ± 7.1 kg/m3
same,mass density,"293.15 K, m1 = 4.462",1806 ± 8.1 kg/m3
same,mass density,"298.15 K, m1 = 0.5112",1129.3 ± 0.8 kg/m3
same,mass density,"298.15 K, m1 = 1.031",1250.2 ± 1.5 kg/m3
same,mass density,"298.15 K, m1 = 1.555",1358.8 ± 2.3 kg/m3
same,mass density,"298.15 K, m1 = 1.997",1443.1 ± 3.1 kg/m3
same,mass density,"298.15 K, m1 = 3.131",1629.1 ± 5.4 kg/m3
same,mass density,"298.15 K, m1 = 3.968",1742.4 ± 7.1 kg/m3
same,mass density,"298.15 K, m1 = 4.462",1801.8 ± 8.1 kg/m3
same,mass density,"308.15 K, m1 = 0.5112",1124.7 ± 0.7 kg/m3
same,mass density,"308.15 K, m1 = 1.031",1244.4 ± 1.5 kg/m3
same,mass density,"308.15 K, m1 = 1.555",1352 ± 2.3 kg/m3
same,mass density,"308.15 K, m1 = 1.997",1435.7 ± 3.1 kg/m3
same,mass density,"308.15 K, m1 = 3.131",1620.5 ± 5.3 kg/m3
same,mass density,"308.15 K, m1 = 3.968",1733.1 ± 7 kg/m3
same,mass density,"308.15 K, m1 = 4.462",1792.2 ± 8 kg/m3
O=[N+]([O-])[O-].O=[N+]([O-])[O-].O=[N+]([O-])[O-].[Nd+3] [neodymium(III) nitrate] + O,mass density,"293.15 K, m1 = 0.522",1136.1 ± 0.8 kg/m3
same,mass density,"293.15 K, m1 = 1.021",1255.1 ± 1.5 kg/m3
same,mass density,"293.15 K, m1 = 1.555",1369.8 ± 2.4 kg/m3
same,mass density,"293.15 K, m1 = 2.093",1474.7 ± 3.4 kg/m3
same,mass density,"293.15 K, m1 = 3.086",1642.1 ± 5.4 kg/m3
same,mass density,"293.15 K, m1 = 4.124",1785.9 ± 7.6 kg/m3
same,mass density,"293.15 K, m1 = 4.297",1807 ± 8 kg/m3
same,mass density,"298.15 K, m1 = 0.522",1134.2 ± 0.8 kg/m3
same,mass density,"298.15 K, m1 = 1.021",1252.5 ± 1.5 kg/m3
same,mass density,"298.15 K, m1 = 1.555",1366.7 ± 2.4 kg/m3
same,mass density,"298.15 K, m1 = 2.093",1471.1 ± 3.4 kg/m3
same,mass density,"298.15 K, m1 = 3.086",1637.8 ± 5.4 kg/m3
same,mass density,"298.15 K, m1 = 4.124",1781.1 ± 7.6 kg/m3
same,mass density,"298.15 K, m1 = 4.297",1802.7 ± 8 kg/m3
same,mass density,"308.15 K, m1 = 0.522",1129.6 ± 0.8 kg/m3
same,mass density,"308.15 K, m1 = 1.021",1246.7 ± 1.5 kg/m3
same,mass density,"308.15 K, m1 = 1.555",1359.9 ± 2.3 kg/m3
same,mass density,"308.15 K, m1 = 2.093",1463.5 ± 3.3 kg/m3
same,mass density,"308.15 K, m1 = 3.086",1628.8 ± 5.3 kg/m3
same,mass density,"308.15 K, m1 = 4.124",1771.4 ± 7.5 kg/m3
same,mass density,"308.15 K, m1 = 4.297",1792.8 ± 7.9 kg/m3
O=[N+]([O-])[O-].O=[N+]([O-])[O-].O=[N+]([O-])[O-].[Y+3] [yttrium nitrate] + O,mass density,"293.15 K, m1 = 0.4989",1105.5 ± 0.6 kg/m3
same,mass density,"293.15 K, m1 = 0.9965",1202.6 ± 1.2 kg/m3
same,mass density,"293.15 K, m1 = 1.497",1290.8 ± 1.8 kg/m3
same,mass density,"293.15 K, m1 = 1.982",1368.7 ± 2.5 kg/m3
same,mass density,"293.15 K, m1 = 2.947",1502.8 ± 3.9 kg/m3
same,mass density,"293.15 K, m1 = 3.945",1615.7 ± 5.4 kg/m3
same,mass density,"293.15 K, m1 = 4.957",1708.9 ± 7 kg/m3
same,mass density,"298.15 K, m1 = 0.4989",1103.5 ± 0.6 kg/m3
same,mass density,"298.15 K, m1 = 0.9965",1200.2 ± 1.2 kg/m3
same,mass density,"298.15 K, m1 = 1.497",1287.8 ± 1.8 kg/m3
same,mass density,"298.15 K, m1 = 1.982",1365.4 ± 2.4 kg/m3
same,mass density,"298.15 K, m1 = 2.947",1498.9 ± 3.9 kg/m3
same,mass density,"298.15 K, m1 = 3.945",1611.4 ± 5.4 kg/m3
same,mass density,"298.15 K, m1 = 4.957",1704.3 ± 6.9 kg/m3
same,mass density,"308.15 K, m1 = 0.4989",1099.2 ± 0.6 kg/m3
same,mass density,"308.15 K, m1 = 0.9965",1194.7 ± 1.2 kg/m3
same,mass density,"308.15 K, m1 = 1.497",1281.4 ± 1.8 kg/m3
same,mass density,"308.15 K, m1 = 1.982",1358.2 ± 2.4 kg/m3
same,mass density,"308.15 K, m1 = 2.947",1490.5 ± 3.8 kg/m3
same,mass density,"308.15 K, m1 = 3.945",1602.2 ± 5.4 kg/m3
same,mass density,"308.15 K, m1 = 4.957",1694.7 ± 6.9 kg/m3
